The data set in a line: ESI positive response factor (isotope-corrected peak area per molar concentration) in SFC/ESI/HRMS (area units per M); higher = higher ionization efficiency.
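Further: standards in acetonitrile/water run in triplicate on a zwitterionic HILIC column, CO2–methanol gradient containing 20 mmol/L ammonium acetate, postcolumn makeup flow, Orbitrap full-scan detection.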

As for `NC(N)=NC(N)=NCCc1ccccc1` [Phenformin], the “ESI positive response factor” value (0.0175 µM) was determined as 2.9e+17; the “ESI positive response factor” value (0.035 µM) is 3.42e+17; the “ESI positive response factor” value (0.0875 µM) worked out at 3.34e+17; the “ESI positive response factor” value (0.175 µM) was found to be 3.21e+17; the “ESI positive response factor” value (0.35 µM) worked out at 3.4e+17.

Consider `COC=C(C(=O)OC)c1ccccc1COc1cccc(C(F)(F)F)n1` [Picoxystrobin], for which the “ESI positive response factor” value was found to be 2.81e+17 (0.0175 µM); 2.82e+17 (0.035 µM); 2.61e+17 (0.0875 µM); 2.25e+17 (0.175 µM); 2.47e+17 (0.35 µM).

With `NC(=O)C1(N2CCCCC2)CCN(CCCC(=O)c2ccc(F)cc2)CC1` [Pipamperone], the “ESI positive response factor” value is, setting by setting: (0.0175 µM) 4.81e+17; (0.035 µM) 5.01e+17; (0.0875 µM) 5.44e+17; (0.175 µM) 5.09e+17.

As for `CC(C)C[C@H](CN)CC(=O)O` [Pregabalin], the “ESI positive response factor” value turned out to be 1.96e+16 (0.0875 µM); 1.55e+16 (0.175 µM); 1.8e+16 (0.35 µM); 1.58e+16 (0.875 µM); 1.57e+16 (1.75 µM).

With `CCC1(c2ccccc2)C(=O)NCNC1=O` [Primidone], the “ESI positive response factor” value reads like this: (0.0175 µM) 8.94e+16; (0.035 µM) 1.09e+17; (0.0875 µM) 1.15e+17; (0.175 µM) 9.69e+16; (0.35 µM) 1.08e+17.

Regarding `COC(=O)N(OC)c1ccccc1COc1ccn(-c2ccc(Cl)cc2)n1` [Pyraclostrobin], the “ESI positive response factor” value was 6.62e+17 (0.0175 µM); 5.71e+17 (0.035 µM); 5.45e+17 (0.0875 µM); 4.73e+17 (0.175 µM); 5.43e+17 (0.35 µM).

`Fc1ccc(Oc2ccnc3cc(Cl)cc(Cl)c23)cc1` [Quinoxyfen]: the “ESI positive response factor” value is, setting by setting: (0.0175 µM) 9.87e+17; (0.035 µM) 1.08e+18; (0.0875 µM) 9.74e+17; (0.175 µM) 9.43e+17.

In the case of `Cc1cc2nc3c(=O)[nH]c(=O)nc-3n(CC(O)C(O)C(O)CO)c2cc1C` (stereo unspecified) [Riboflavin], the “ESI positive response factor” value reads like this: (0.175 µM) 2.66e+15; (0.35 µM) 3.31e+15; (0.875 µM) 3.41e+15; (1.75 µM) 3.53e+15.

As to `O=C(O)C(c1ccccc1)C1CCCCN1` (stereo unspecified) [Ritalinic acid], the “ESI positive response factor” value stood at 1.26e+17 (0.035 µM); 1.24e+17 (0.0875 µM); 1.12e+17 (0.175 µM); 1.31e+17 (0.35 µM); 1.17e+17 (0.875 µM); 1.26e+17 (1.75 µM).

Regarding `CC(C)NCC(O)c1ccc(NS(C)(=O)=O)cc1` (stereo unspecified) [Sotalol], the “ESI positive response factor” value (0.0175 µM) came to 2.28e+17, the “ESI positive response factor” value (0.035 µM) came to 2.68e+17 and the “ESI positive response factor” value (0.0875 µM) stood at 2.59e+17.

For the molecule `CC(CCl)OP(=O)(OC(C)CCl)OC(C)CCl` (stereo unspecified) [TCPP], the “ESI positive response factor” value is, setting by setting: (0.0175 µM) 1.59e+18; (0.035 µM) 1.21e+18; (0.0875 µM) 1.02e+18; (0.175 µM) 8.34e+17; (0.35 µM) 7.91e+17.

Consider `O=P(OC(CCl)CCl)(OC(CCl)CCl)OC(CCl)CCl` [TDCPP], for which the “ESI positive response factor” value reads like this: (0.0175 µM) 4.09e+17; (0.035 µM) 4.02e+17; (0.0875 µM) 3.57e+17.

Consider `C[C@]12CC[C@H]3[C@@H](CCC4=CC(=O)CC[C@@]43C)[C@@H]1CC[C@@H]2O` [Testosteron], for which the “ESI positive response factor” value by setting is: (0.0175 µM) 2.27e+17; (0.035 µM) 2.44e+17; (0.0875 µM) 2.22e+17.

On to `NCC1CCC(C(=O)O)CC1` (stereo unspecified) [Tranexamic acid], for which the “ESI positive response factor” value (0.035 µM) amounted to 9.61e+16; the “ESI positive response factor” value (0.0875 µM) was 6.97e+16; the “ESI positive response factor” value (0.175 µM) was determined as 5.79e+16; the “ESI positive response factor” value (0.35 µM) was 6.32e+16; the “ESI positive response factor” value (0.875 µM) was 6.01e+16.

Consider `OCCN(CCO)CCO` [Triethanolamine], for which the “ESI positive response factor” value was 8.84e+16 (0.0175 µM); 8.88e+16 (0.035 µM); 8.78e+16 (0.0875 µM); 8.76e+16 (0.175 µM); 8.66e+16 (0.35 µM).

`COCCOCCOCCO` [Triethylene glycol monomethyl ether]: the “ESI positive response factor” value reads like this: (0.0175 µM) 8.19e+16; (0.035 µM) 9.98e+16; (0.0875 µM) 8.29e+16; (0.175 µM) 7.97e+16.

With `COc1cc(Cc2cnc(N)nc2N)cc(OC)c1OC` [Trimethoprim], the “ESI positive response factor” value was found to be 2.88e+17 (0.0175 µM); 3.52e+17 (0.035 µM); 3.58e+17 (0.0875 µM); 3.13e+17 (0.175 µM); 3.46e+17 (0.35 µM); 3.33e+17 (0.875 µM).

Turning to `O=P(OCCCl)(OCCCl)OCCCl` [Tris(2-chloroethyl) phosphate], the “ESI positive response factor” value (0.0175 µM) was determined as 2.68e+18, the “ESI positive response factor” value (0.035 µM) was determined as 2.89e+18 and the “ESI positive response factor” value (0.0875 µM) came out at 2.72e+18.

Consider `CCCCC(=O)N(Cc1ccc(-c2ccccc2-c2nn[nH]n2)cc1)C(C(=O)O)C(C)C` (stereo unspecified) [Valsartan], for which the “ESI positive response factor” value (0.0175 µM) came to 2.86e+16; the “ESI positive response factor” value (0.035 µM) stood at 5.36e+16; the “ESI positive response factor” value (0.0875 µM) was determined as 5.55e+16; the “ESI positive response factor” value (0.175 µM) came to 5.75e+16; the “ESI positive response factor” value (0.35 µM) was 6.09e+16; the “ESI positive response factor” value (0.875 µM) came to 6.04e+16. For the same molecule, the “ESI positive response factor” value (1.75 µM) came to 5.94e+16.

Take `C=CC(=O)OCC[N+](C)(C)C` [[2-(Acryloyloxy)ethyl]trimethylammonium]: the “ESI positive response factor” value (0.035 µM) came out at 8.46e+16; the “ESI positive response factor” value (0.0875 µM) amounted to 6.97e+16; the “ESI positive response factor” value (0.175 µM) was found to be 5.79e+16; the “ESI positive response factor” value (0.35 µM) stood at 6.32e+16; the “ESI positive response factor” value (0.875 µM) was 6.01e+16.

For `CC(O)CN(CC(C)O)CC(C)O` (stereo unspecified) [triisopropanolamine], the “ESI positive response factor” value by setting is: (0.035 µM) 1.75e+17; (0.0875 µM) 2.93e+17; (0.175 µM) 3.36e+17; (0.35 µM) 3.51e+17.

These data come from the supplement of paper PMC10326909.
